Patent publication US8841257B2, “Inhibitors of STAT3 and uses thereof” (Board of Regents, The University of Texas System, priority 2009, dated 2014)

What was measured:
STAT3 = STAT3 (Homo sapiens, UniProt P40763); experiment: Inhibition of STAT3 phosphorylation in BT20 breast tumor cells (western blot); format: cell-based; design: endogenous in cells; host or cells: BT20 breast tumor cells
Experimental: Inhibition of STAT3 in BT20 Breast Tumor Cells. General procedure: 35 mm petri dishes were plated with 300,000 BT20 cells in 2 mL RPMI1640 media containing 10% FBS, […], streptomycin, and glutamine. Prodrugs were dissolved in DMSO and were added to the cells with fresh media at varying concentrations. After 2 h the cells were washed with ice cold phosphate buffered saline. Washed cells were treated with lysis buffer (50 mM Hepes, pH 7.4, 150 mM NaCl, 1.5 mM MgCl2, 1 mM EGTA, 100 mM NaF, 10 mM sodium pyrophosphate, 10% glycerol, 1% Triton X-100, 1 mM PMSF, 1 mM Na3VO4, 10 μg/mL leupeptin and 10 μg/mL aprotinin). Cell-free detergent extracts were centrifuged at 15,000 rpm in a microcentriguge for 30 min at 4° C. and the protein concentrations of the supernatants determined. Aliquots containing 12 μg of protein were separated on 8% SDS-PAGE and were transferred to PVDF filters. The filters were blocked with 5% bovine serum albumin and were probed with pStat3^Y705 antibody followed by secondary antibody, whose signal was detected with an enhanced chemiluminescence kit (ECL, Amersham, Chicago, Ill.). Filters were stripped with stripping buffer (62.5 mM Tris, pH 6.8, 2% SDS, and 0.1 M 2-mercaptoethanol) at 50° C. for 30 min. Filters were then probed with total Stat3 antibody and visualized with chemiluminescence as above.
Because DMSO is toxic, other formulations were evaluated for potential use in animal models. The compound of Example 1 was dissolved in EtOH, 20% (w/v) Trappsol (hydroxypropyl β-cyclodextran, pharmaceutical grade), or a liposomal formulation to a concentration of 5 mM. These formulations were given to cells at 0.1, 0.5, and 5 μM concentrations. At two hours, cells were lysed and pSTAT3 levels were determined by Western Blot (FIG. 3). Different formulations have little effect on inhibition of STAT3. The compound of Example 1 was dissolved in DMSO, EtOH, Trappsol, or as a 10 mol % mixture in dimyristoylphosphatidyl choline and applied to BT20 cell in culture. After two hours, cells were lysed and pSTAT3 levels determined by Western blot. To prepare liposomes a solution of 1.0 mg of the compound of Example 1, 7.2 mg of DMPC, 0.41 mg of Tween 20 in 1.0 mL of tert-butanol was lyophilized. A control lipid formulation of 7.2 mg of DMPC and 0.41 mg of Tween 20 in 1.0 mL of tert-butanol was lyophilized. These samples were mixed with 236 μL of H2O and were vortexed and sonicated for 5 min.
The compounds are selective for STAT3 over STAT1 in BT20 breast tumor cells. BT20 cells prepared as above and were treated with 5 μM of the compound of Example 1 for two hours then were treated with 25 ng/mL of interferon γ (IFNγ). […] (FIG. 4, bottom panel).
Time course of inhibition of STAT3 phosphorylation in BT20 cells. BT20 cells were plated as above and treated with the compounds from Examples 1 and 6 and western blots were performed at varying time intervals.

[1] = system: SUM149 inflammatory breast tumor cells; experiment: Anchorage-independent growth in soft agar, SUM149; format: cell-based; settings: 28 days
Experimental: Assay for anchorage-independent growth in soft agar Cells (5×10^5) were suspended in 1× DMEM/HEPES, 10% heat-inactivated FBS, 0.13% bicarbonate, and 0.33% BBL agar. The cells were plated on 1% base agar plates (60 mm) containing 1× DMEM/HEPES, 10% heat-inactivated FBS, and 1% BBL agar. Fresh serum-containing medium was fed to the cells on 3-day intervals. The dishes were then incubated at 37° C. with 5% CO2 for 28 days. The colonies that grew in soft agar were photographed and counted. Data are expressed as the number of colonies formed per plate±S.E.M. and three plates were counted per cell line.

IL-6 = experiment: Inhibition of IL-6 expression in lung tumor cells (ELISA); format: cell-based, human; settings: 5 μM; HCC-827
Experimental: Inhibition of IL-6 expression in lung tumor cells. HCC-827 cells were seeded in 6-well plates at a density of 4×10^5 cells/well. The following day, the media was replaced with fresh media containing low serum and treated the compound from Example 1 at a concentration of 5 μM. The cells were incubated at 37° C. and the supernatant was collected at 2, 4, 24, 48, and 72 hours post treatment. The supernatant was centrifuged at 2000 rpm for 3 minutes, transferred to fresh tubes and stored at −20 for further analysis. The supernatants were diluted six times with distilled water. The supernatants were then subjected to ELISA analysis for expression of Interleukin-6 (IL-6) as per the manufacturer's protocol (Hs Human IL-6 kit, R&D Systems, Minneapolis, Minn. USA, Cat #HS600B). The amount of secreted IL-6 was calculated and quantified based on the standards and plotted as bar graphs using Microsoft excel. […] Stat3 expresses IL-6 and IL-6 stimulates Stat3 activation, resulting in angiogenesis, cell cycling and cell survival.

VEGF = experiment: Inhibition of VEGF expression in lung tumor cells (ELISA); format: cell-based, human; settings: single dose of 5 μM; HCC-827
Experimental: Inhibition of VEGF expression in lung tumor cells. HCC-827 were seeded in 6-well plates at a density of 4×10^5 cells. The following day, the media was replaced with fresh media containing low serum and treated either the compound from example 16 at a concentration of 5 μM. The cells were incubated at 37° C. and the supernatant was collected at 2, 4, 24, 48 and 72 hours post treatment. The supernatant was centrifuged at 2000 rpm for 3 minutes, transferred to fresh tubes and stored at −20 for further analysis. The supernatants were diluted six times with distilled water.

[2] = system: MDA-MB-468 breast cancer cells; experiment: Inhibition of growth of MDA-MB-468 breast cancer cells (MTT); format: cell-based, human; settings: 72 hr
Experimental: MDA MB 468 cells were plated at 1500 cells/well DMEM with high glucose 10% FBS. Cells were plated into 96 well plates (1500 cells per well) in. After 24 h the media was changed and cells were treated with DMSO or increasing amounts of the compound of Example 1 in DMSO. All wells had equal concentrations of DMSO. At 72 hr viability was measured with the MTT assay. […] In the mixtures of compounds of Examples 16, 22, 1 and 8. the total concentration of the drug is as listed on the X-axis. However, the mixtures are equimolar amounts of both drugs. For example, 5 μM of the drug is actually 2.5 μM of the compound of Example 16 and 2.5 μM the compound of Example 22. The same is true for the mixture of compounds Example 1 and Example 8.

STAT3, sequence (P40763 whole entry): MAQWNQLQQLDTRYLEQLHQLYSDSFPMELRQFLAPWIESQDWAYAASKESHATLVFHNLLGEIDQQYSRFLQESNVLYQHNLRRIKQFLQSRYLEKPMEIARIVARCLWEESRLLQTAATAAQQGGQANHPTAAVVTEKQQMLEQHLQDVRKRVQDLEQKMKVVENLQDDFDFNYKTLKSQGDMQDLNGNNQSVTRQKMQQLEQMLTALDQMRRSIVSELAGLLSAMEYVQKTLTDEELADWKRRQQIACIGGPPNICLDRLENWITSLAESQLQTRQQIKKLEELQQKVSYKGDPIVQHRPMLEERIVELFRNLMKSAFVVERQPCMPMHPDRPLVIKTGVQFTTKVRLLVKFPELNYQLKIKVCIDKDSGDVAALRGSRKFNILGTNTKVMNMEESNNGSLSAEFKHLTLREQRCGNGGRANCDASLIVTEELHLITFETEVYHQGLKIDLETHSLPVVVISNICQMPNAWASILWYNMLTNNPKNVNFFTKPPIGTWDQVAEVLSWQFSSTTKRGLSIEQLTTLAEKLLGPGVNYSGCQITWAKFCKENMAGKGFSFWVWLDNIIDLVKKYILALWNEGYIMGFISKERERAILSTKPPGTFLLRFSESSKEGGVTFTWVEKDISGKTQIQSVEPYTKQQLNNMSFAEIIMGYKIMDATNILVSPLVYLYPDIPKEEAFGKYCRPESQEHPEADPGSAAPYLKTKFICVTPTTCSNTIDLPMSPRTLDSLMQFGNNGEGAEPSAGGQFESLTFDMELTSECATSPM

Row | phosphorylation of STAT3 at the indicated time points (STAT3; 5 μM, BT-20 cells) | selectivity for STAT3 over STAT1 and AKT (STAT3; BT20 cells) | pSTAT3 inhibition compared with DMSO sample (STAT3; dissolved in EtOH, 0.5 and 5 μM, 2 h, BT20) | pSTAT3 inhibition compared with DMSO sample (STAT3; in 20% Trappsol HPB, 0.5 and 5 μM, 2 h, BT20) | pSTAT3 inhibition compared with DMSO sample (STAT3; liposomal preparation (DMPC/Tween 20), 2 h, BT20) | SMILES | increase in pSTAT3 formation on EGF stimulation (STAT3; 5 μM, 2 h, then EGF 50 ng/mL, BT20) | pSTAT3 inhibition compared with DMSO sample (STAT3; dissolved in EtOH, 0.1 μM, 2 h, BT20) | pSTAT3 inhibition compared with DMSO sample (STAT3; in 20% Trappsol HPB, 0.1 μM, 2 h, BT20) | colony formation in soft agar [1] | time for which IL-6 expression is inhibited (IL-6) [h] | time up to which expression and excretion of VEGF is inhibited (VEGF) | potency in MTT viability assay relative to Example 1 [2]
1 | inhibit the phosphorylation of STAT3 | selective for STAT3 over STAT1 and AKT | comparable | comparable | inhibition comparable to DMSO | C/C(=C\C(=O)N[C@H]1CCc2cccc3c2N(C1=O)[C@H](C(=O)N[C@H](C)CCC(N)=O)C3)c1ccc(C(F)(F)P(=O)(OCOC(=O)C(C)(C)C)OCOC(=O)C(C)(C)C)cc1 [Example 1, (2E)-3-[4-[[bis[(2,2-dimethyl-1-oxopropoxy)methoxy]phosphinyl]difluoromethyl]phenyl]-but-2-enoyl-Haic-(R)-4-aminopentamide] | inhibited the increase in pSTAT3 formation | did not inhibit as much as did the DMSO sample | did not inhibit as much as did the DMSO sample | inhibition of colony formation | 48 | – | –
2 | – | – | – | – | – | CCCC[C@H](NC(=O)/C=C(\C)c1ccc(C(F)(F)P(=O)(OCOC(=O)C(C)(C)C)OCOC(=O)C(C)(C)C)cc1)C(=O)N1C[C@H]2CC2[C@H]1C(=O)N[C@@H](CCC(N)=O)[C@@H](C)OCc1ccccc1 (stereo partly drawn) [Example 16, (2E)-3-[4-[[bis[(2,2-dimethyl-1-oxopropoxy)methoxy]phosphinyl]difluoromethyl]phenyl]-but-2-enoyl-norleucinyl-(2S,3R,4S)-methanoprolinyl-(4S,5R)-4-amino-5-benzyloxyhexamide] | – | – | – | – | – | up to 24 hr | somewhat more potent
